The target of data set [1] is Cannabinoid receptor 1 (Homo sapiens, UniProt P21554). The data set can be described thus: Antagonist activity at human CB1 receptor transfected in CHO-K1cells by GTPgamma[35S] binding assay. The format is functional, cell-based, CHO-K1.
A short description of data set [2]: Intrinsic clearance in human liver microsomes. The format is ADME, Microsome. In general terms: Microsomes from liver hold many membrane-bound enzymes, among them those of drug oxidation.
The species named for data set [3] is Homo sapiens. The data set can be described thus: Selectivity index, ratio of Ki for human CB2 receptor to Ki for human CB1 receptor.
In data set [4] the target is Cannabinoid receptor 1 (Rattus norvegicus, UniProt P20272). As to the kind of experiment: Displacement of [3H]SR141716A from rat brain CB1 receptor. For orientation: Loss of bound radioactivity is the signal in a displacement assay; it reports binding, not function.
Cannabinoid receptor 1 (Rattus norvegicus, UniProt P20272), sequence (P20272 whole entry): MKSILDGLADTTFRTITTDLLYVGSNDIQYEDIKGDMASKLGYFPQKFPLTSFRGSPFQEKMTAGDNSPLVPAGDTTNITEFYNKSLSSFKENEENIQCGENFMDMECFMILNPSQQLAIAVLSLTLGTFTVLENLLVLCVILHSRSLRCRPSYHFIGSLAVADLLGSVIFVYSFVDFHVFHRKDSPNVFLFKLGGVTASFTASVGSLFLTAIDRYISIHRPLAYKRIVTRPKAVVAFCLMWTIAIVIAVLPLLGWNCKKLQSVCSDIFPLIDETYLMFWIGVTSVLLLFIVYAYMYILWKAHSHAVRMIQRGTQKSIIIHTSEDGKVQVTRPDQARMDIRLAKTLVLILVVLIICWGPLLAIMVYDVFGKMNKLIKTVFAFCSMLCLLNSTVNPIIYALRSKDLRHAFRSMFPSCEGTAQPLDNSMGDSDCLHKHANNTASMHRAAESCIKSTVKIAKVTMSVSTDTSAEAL
The target in data set [5] is Cytochrome P450 2C19 (Homo sapiens, UniProt P33261). As to the kind of experiment: Inhibition of CYP2C19. The format is ADME.
Cytochrome P450 2C19, sequence (P33261 whole entry): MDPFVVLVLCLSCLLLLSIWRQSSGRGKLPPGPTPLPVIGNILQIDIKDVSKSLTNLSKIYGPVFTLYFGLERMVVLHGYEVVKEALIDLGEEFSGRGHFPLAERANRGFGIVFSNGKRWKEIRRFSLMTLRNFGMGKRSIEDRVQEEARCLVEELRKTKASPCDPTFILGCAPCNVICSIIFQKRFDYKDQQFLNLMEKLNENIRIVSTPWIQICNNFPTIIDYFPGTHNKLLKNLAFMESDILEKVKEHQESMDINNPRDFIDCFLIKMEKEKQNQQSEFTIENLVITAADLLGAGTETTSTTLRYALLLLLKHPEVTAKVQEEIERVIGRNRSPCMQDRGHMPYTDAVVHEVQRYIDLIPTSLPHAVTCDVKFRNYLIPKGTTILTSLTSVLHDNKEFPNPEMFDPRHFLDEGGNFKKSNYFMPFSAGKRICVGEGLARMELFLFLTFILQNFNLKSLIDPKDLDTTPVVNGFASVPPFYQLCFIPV
Data set [6] deals with Rattus norvegicus. The data set can be described thus: Clearance in rat at 2 mg/kg, iv. The format is ADME, organism-based. Further details: dose 2 mg/kg, route intravenous. As to conditions: in vivo.
Data set [7] concerns Rattus norvegicus. The data set can be described thus: Antiobesity activity in overnight fasted Sprague-Dawley rat assessed as reduction in food intake in at 10 mg/kg, po. The format is functional. Further details: scale not given: the % may be the effect or the level left.
In data set [8] the test system is Mus musculus. The data set can be described thus: Analgesic activity in CP-55940-induced ICR mouse assessed as reduction in latency to jump, kick, lick, flick paw at 10 mg/kg, ip by hotplate assay. Further details: scale not given: the % may be the effect or the level left. As to conditions: route intraperitoneal. The format is functional.
In data set [9] the target is Cytochrome P450 2C9 (Homo sapiens, UniProt P11712). The data set can be described thus: Inhibition of CYP2C9. The format is ADME.
Cytochrome P450 2C9, sequence (P11712 whole entry): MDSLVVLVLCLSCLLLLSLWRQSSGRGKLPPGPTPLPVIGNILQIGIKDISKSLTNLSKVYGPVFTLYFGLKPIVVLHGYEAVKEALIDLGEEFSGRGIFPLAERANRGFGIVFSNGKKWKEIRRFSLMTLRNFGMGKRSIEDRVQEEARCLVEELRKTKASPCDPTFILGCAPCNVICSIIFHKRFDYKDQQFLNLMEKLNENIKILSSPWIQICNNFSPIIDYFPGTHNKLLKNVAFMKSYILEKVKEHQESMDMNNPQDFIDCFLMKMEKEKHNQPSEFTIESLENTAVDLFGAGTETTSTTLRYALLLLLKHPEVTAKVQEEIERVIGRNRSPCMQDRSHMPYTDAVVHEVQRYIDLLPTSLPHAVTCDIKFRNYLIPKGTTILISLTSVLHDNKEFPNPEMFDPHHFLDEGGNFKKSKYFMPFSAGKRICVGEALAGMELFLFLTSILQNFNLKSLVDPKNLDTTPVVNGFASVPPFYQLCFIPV
For data set [10], the target named is Cytochrome P450 3A4 (Homo sapiens, UniProt P08684). The data set can be described thus: Inhibition of CYP3A4. The format is ADME.
Cytochrome P450 3A4, sequence (P08684 whole entry): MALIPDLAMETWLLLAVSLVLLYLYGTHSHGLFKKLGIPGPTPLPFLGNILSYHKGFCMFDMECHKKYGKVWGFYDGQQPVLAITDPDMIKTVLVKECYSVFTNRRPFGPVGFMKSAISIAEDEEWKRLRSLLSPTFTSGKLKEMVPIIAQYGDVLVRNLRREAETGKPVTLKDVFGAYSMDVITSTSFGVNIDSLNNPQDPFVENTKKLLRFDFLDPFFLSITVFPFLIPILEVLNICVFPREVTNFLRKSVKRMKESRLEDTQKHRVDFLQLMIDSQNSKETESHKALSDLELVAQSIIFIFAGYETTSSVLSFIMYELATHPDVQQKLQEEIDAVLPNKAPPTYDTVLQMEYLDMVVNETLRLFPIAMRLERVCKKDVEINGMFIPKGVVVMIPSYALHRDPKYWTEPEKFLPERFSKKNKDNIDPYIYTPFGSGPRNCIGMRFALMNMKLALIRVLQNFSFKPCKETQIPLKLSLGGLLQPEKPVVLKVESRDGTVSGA
Data set [11] has as its target Cytochrome P450 2D6 (Homo sapiens, UniProt P10635). The data set can be described thus: Inhibition of CYP2D6. The format is ADME.
Data set [12] is described as follows: Half life in rat at 2 mg/kg, iv. The format is ADME, organism-based. The settings on record: in vivo. Details: dose 2 mg/kg, route intravenous.
Data set [13] relates to Mus musculus. As to the kind of experiment: Effect on hypothermic activity in CP-55940-induced ICR mouse assessed as reduction in body temperature at 10 mg/kg, ip measured after 65 mins of CP-55940 challenge by tetrad assay. The format is functional. The settings on record: route intraperitoneal. Details: scale not given: the % may be the effect or the level left.
Data set [14] relates to Rattus norvegicus. The data set can be described thus: Antiobesity activity in overnight fasted Sprague-Dawley rat assessed as reduction in food intake in at 3 mg/kg, po. The format is functional. Details: scale not given: the % may be the effect or the level left.
Data set [15] can be described thus: Oral bioavailability in rat at 5 mg/kg. The format is ADME, organism-based. The settings on record: in vivo.
Data set [16] is described as follows: Volume of distribution in rat at 2 mg/kg, iv. The format is ADME, organism-based. Details: dose 2 mg/kg, route intravenous. The settings on record: in vivo.
Data set [17] deals with T1, Cytochrome P450 1A2 (Homo sapiens, UniProt P05177).
T1 sequence (P05177 whole entry): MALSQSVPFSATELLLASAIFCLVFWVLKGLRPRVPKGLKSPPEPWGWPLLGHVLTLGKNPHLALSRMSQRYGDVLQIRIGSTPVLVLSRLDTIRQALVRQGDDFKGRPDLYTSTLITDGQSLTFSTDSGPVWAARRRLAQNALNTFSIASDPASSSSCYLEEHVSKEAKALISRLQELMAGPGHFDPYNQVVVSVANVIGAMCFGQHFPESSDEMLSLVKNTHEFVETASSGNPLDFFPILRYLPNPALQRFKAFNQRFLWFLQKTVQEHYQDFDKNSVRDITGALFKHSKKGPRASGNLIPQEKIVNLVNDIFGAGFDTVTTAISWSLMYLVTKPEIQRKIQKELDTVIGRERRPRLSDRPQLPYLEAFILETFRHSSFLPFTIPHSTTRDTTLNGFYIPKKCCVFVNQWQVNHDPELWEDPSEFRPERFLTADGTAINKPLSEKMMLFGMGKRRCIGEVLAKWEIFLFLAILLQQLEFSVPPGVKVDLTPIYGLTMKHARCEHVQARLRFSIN
As to the kind of experiment: Inhibition of CYP1A2. The format is ADME.

A value given as a limit tells only on which side of the number the result lay.

As a reminder, the Ki is a dissociation constant, usually derived from enzyme kinetics or from competition with a known ligand. For orientation: CLint scaled means the rate of metabolic loss divided by the concentration. The term IC50 denotes the concentration that gives 50% inhibition. The term clearance denotes a measure of how efficiently the substance is removed, as volume per time. One may read the half-life as the time needed for the level to fall by half in the phase considered. A word on the bioavailability: it is the share of a dose that reaches the circulation, judged against a reference dose that is usually intravenous. The term Vd denotes the apparent volume that relates the amount in the body to the concentration in plasma or blood.

Cannabinoid receptor 1 (Homo sapiens, UniProt P21554), sequence (P21554 whole entry): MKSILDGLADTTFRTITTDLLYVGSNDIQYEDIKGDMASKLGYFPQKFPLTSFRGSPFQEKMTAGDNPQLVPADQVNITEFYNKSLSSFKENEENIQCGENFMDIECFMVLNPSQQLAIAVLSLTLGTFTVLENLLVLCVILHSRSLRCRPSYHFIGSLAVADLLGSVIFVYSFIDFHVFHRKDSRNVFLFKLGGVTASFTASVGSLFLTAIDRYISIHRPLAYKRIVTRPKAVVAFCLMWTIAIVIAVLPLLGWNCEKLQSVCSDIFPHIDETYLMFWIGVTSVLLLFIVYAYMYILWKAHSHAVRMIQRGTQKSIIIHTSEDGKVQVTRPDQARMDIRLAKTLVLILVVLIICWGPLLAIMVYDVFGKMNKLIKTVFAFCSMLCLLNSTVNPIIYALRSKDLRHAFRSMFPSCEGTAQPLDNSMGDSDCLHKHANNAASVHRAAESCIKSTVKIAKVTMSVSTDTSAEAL
Cytochrome P450 2D6, sequence (P10635 whole entry): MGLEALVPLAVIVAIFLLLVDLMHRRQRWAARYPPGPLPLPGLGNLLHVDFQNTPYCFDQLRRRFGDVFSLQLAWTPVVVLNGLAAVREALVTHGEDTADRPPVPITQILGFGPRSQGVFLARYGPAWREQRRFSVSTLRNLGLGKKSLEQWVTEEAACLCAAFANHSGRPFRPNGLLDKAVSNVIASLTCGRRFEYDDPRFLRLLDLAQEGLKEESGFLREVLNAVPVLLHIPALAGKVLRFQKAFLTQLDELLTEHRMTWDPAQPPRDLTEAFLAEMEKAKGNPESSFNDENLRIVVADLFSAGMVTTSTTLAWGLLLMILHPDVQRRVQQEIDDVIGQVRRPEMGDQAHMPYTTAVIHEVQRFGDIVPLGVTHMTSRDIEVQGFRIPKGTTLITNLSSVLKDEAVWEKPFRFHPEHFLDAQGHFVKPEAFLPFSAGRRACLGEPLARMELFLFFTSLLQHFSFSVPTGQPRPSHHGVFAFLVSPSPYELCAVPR

`Cc1c(-c2cnc(C(C)C)[nH]2)nn(-c2ccc(Cl)cc2Cl)c1-c1ccc(Cl)cc1`: the figures for the Ki in data set [1] and in data set [4] were 9.5 nM and 7.2 nM, respectively. Further, the CLint scaled in data set [2] was determined as 42.5 mL/min/kg. In addition, the Ratio Ki in [3] was over 100.

With `Cc1c(-c2ncc(C(C)C)[nH]2)nn(-c2ccc(Cl)cc2Cl)c1-c1ccc(Cl)cc1`, the Ki in [1] came out at 5.2 nM; in data set [4], 9.5 nM. Further, in [2], the intrinsic clearance (CLint scaled) was determined as 42.5 mL/min/kg. For the same compound, the Ratio Ki in data set [3] was over 100.

In data set [2], `Cc1c(-c2cn(C3CCOCC3)cn2)nn(-c2ccc(Cl)cc2Cl)c1-c1ccc(Cl)cc1` had a CLint scaled of under 7 mL/min/kg. For the same compound, the Ratio Ki in data set [3] is over 100. The affinity in data set [4], expressed as Ki, was 25 nM.

As to `Cc1c(-c2nc[nH]c2C(C)C)nn(-c2ccccc2Cl)c1-c1ccc(Cl)cc1`, the Ratio Ki in data set [3] is over 100. This compound returned a Ki in data set [4] of 31 nM.

For the compound `CCc1c(-c2nn(-c3ccc(Cl)cc3Cl)c(-c3ccc(Cl)cc3)c2C)ncn1C(C)C`, the Ratio Ki in data set [3] was over 100. The compound further had a Ki in data set [4] of 38 nM.

For the compound `Cc1c(-c2cn(C(C)(C)c3ccccc3)cn2)nn(-c2ccc(Cl)cc2Cl)c1-c1ccc(Cl)cc1`, the values for the Ki in [1] and in [4] were 0.1 nM and 1.8 nM, respectively. For the same compound, the Ratio Ki in [3] was over 100.

As for `Cc1c(-c2cn(Cc3ccccc3)cn2)nn(-c2ccc(Cl)cc2Cl)c1-c1ccc(Cl)cc1`, the Ratio Ki in data set [3] is over 100. The compound also showed an inhibition constant Ki in data set [4] of 14 nM.

For the compound `Cc1c(-c2ncn(C(C)C)c2CO)nn(-c2ccc(Cl)cc2Cl)c1-c1ccc(Cl)cc1`, in data set [3], the Ratio Ki is over 100. This compound also registered a Ki in [4] of 19 nM.

For `Cc1c(-c2cn(C(C)C)cn2)nn(-c2ccccc2Cl)c1-c1ccc(Cl)cc1`, the IC50 in data set [5], in data set [9], in data set [10], in data set [11] and in data set [17] was over 10000 nM each time. Besides, the clearance in [6] came out at 21 mL/min/kg. For the same compound, the Activity in data set [7] is reported as 44%; in data set [8], 56%; in [13], 33%; in data set [14], -31%. The Ki came out at 7.6 nM in data set [1] and 5.3 nM in data set [4]. For the same compound, in [12], the half-life is 1.5 h. Also, the Ratio Ki in [3] is over 100. The compound further came in with a bioavailability in data set [15] of 42%. In addition, the Vd in [16] was 2.5 L/kg.

Regarding `Cc1c(-c2cn(C(C)(C)c3ccccc3)cn2)nn(-c2ccccc2Cl)c1-c1ccc(Cl)cc1`, the results for the inhibition constant Ki in data set [1] and in [4] were 0.1 nM and 1.1 nM, respectively. The Ratio Ki in [3] is over 100.

On to `Cc1c(-c2cn(C3CCC3)cn2)nn(-c2ccc(Cl)cc2Cl)c1-c1ccc(Cl)cc1`, for which the Ki in data set [1] came to 5 nM; in data set [4], 10 nM. Also, in [3], the Ratio Ki is over 100.

As for `Cc1c(-c2cn(C(C)(C)C)cn2)nn(-c2ccc(Cl)cc2Cl)c1-c1ccc(Cl)cc1`, the Ratio Ki in data set [3] is over 100. This compound gave a Ki in data set [4] of 14 nM.

As to `Cc1c(-c2cn(C3CC3)cn2)nn(-c2ccccc2Cl)c1-c1ccc(Cl)cc1`, the Ki in data set [1] was determined as 7.9 nM; in [4] it was 7.4 nM. The Ratio Ki in [3] was over 100.

Turning to `Cc1c(-c2cn(C3CCCCC3)cn2)nn(-c2ccc(Cl)cc2Cl)c1-c1ccc(Cl)cc1`, the Ki stood at 4.7 nM in data set [1] and 8.6 nM in data set [4]. For the same compound, the Ratio Ki in data set [3] was over 100.

Consider `Cc1c(-c2ncn(C(C)C)c2C)nn(-c2ccc(Cl)cc2Cl)c1-c1ccc(Cl)cc1`, for which the inhibitory constant (Ki) worked out at 9 nM in data set [1] and 5.7 nM in [4]. For the same compound, the Ratio Ki in data set [3] is over 100.

For `CCn1cnc(-c2nn(-c3ccc(Cl)cc3Cl)c(-c3ccc(Cl)cc3)c2C)c1`, the Ratio Ki in data set [3] was over 100. Moreover, in [4], the affinity, expressed as Ki, was 20 nM.

`Cc1c(-c2cn(-c3ccccc3)cn2)nn(-c2ccccc2Cl)c1-c1ccc(Cl)cc1`: the inhibition constant (Ki) in data set [1] amounted to 3.8 nM; in data set [4] it was 19 nM. In addition, the Ratio Ki in [3] is over 100.

Regarding `Cc1c(-c2cn(C(C)C)cn2)nn(-c2ccc(Cl)cc2Cl)c1-c1ccc(Cl)cc1`, the Ki is 9 nM in [1] and 4.9 nM in data set [4]. The same compound showed a CLint scaled in data set [2] of 14 mL/min/kg. The Ratio Ki in [3] is over 100.

Values taken from ChEMBL document CHEMBL1155992, “Bioisosteric replacement of the hydrazide pharmacophore of the cannabinoid-1 receptor antagonist SR141716A. Part I: potent, orally-active 1,4-disubstituted imidazoles” (Bioorg Med Chem Lett, 2009).
